In patent publication EP0590919A1, “Therapeutic agents for parkinson's disease” (KYOWA HAKKO KOGYO CO., LTD., priority 1992, dated 1994):

Biological target: T1, A₁ receptor (Cavia porcellus, UniProt P47745)
T1 construct: from tissue; host or cells: guinea pig cerebrum membrane preparation
T1 sequence (P47745 1-326): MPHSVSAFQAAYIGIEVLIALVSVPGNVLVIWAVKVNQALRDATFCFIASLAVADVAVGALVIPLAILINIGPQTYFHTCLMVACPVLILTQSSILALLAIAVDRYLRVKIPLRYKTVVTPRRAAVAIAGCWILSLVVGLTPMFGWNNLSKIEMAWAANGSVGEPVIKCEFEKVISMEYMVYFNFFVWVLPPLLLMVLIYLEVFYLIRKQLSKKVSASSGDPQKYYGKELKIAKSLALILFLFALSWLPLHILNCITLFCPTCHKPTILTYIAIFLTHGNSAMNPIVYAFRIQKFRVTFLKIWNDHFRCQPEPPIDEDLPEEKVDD
Experiment: Adenosine A₁ receptor binding test (³H-CHA binding)
Parameters: species or system guinea pig
Conditions: 10⁻⁴M, guinea pig cerebrum
Description: Cerebrum of a guinea pig was suspended in ice-cooled 50 mM Tris hydroxymethyl aminomethane hydrochloride (Tris HCl) buffer (pH 7.7) by using Polytron homogenizer (manufactured by […] Co.). […] The suspension was centrifuged under the same conditions, and the final precipitate was suspended once again in 50 mM Tris HCl buffer to give a tissue concentration of 100 mg (wet weight)/ml. The tissue suspension was incubated at 37°C for 30 minutes in the presence of 0.02 unit/mg tissue of adenosine deaminase (manufactured by Sigma Co.). The tissue suspension was then centrifuged (50,000 x g, 10 minutes), and 50 mM Tris HCl buffer was added to the precipitate to adjust the concentration of tissue to 10 mg (wet weight)/ml. […] The mixture solution was allowed to stand at 25°C for 90 minutes and then rapidly filtered by suction through a glass fiber filter (GF/C manufactured by Whatman Co.). […] The radioactivity on the filter was determined with a liquid scintillation counter (manufactured by Packard Instrument Co.). […] The inhibition constant (Ki value) shown in the table was calculated by the Cheng-Prusoff's equation.

Row | SMILES | inhibition at 100 µM
1 | CCn1c(=O)c2[nH]c(/C=C/c3ccc4c(c3)OCCO4)nc2n(CC)c1=O [Compound 17, (E)-8-[2-(1,4-Benzodioxan-6-yl)vinyl]-1,3-diethylxanthine] | 31%

Same assay, conditions: 10⁻⁵M, guinea pig cerebrum

Row | SMILES | inhibition at 10 µM
2 | CCn1c(=O)c2[nH]c(/C=C/c3ccc4c(c3)OCCO4)nc2n(CC)c1=O [Compound 17, (E)-8-[2-(1,4-Benzodioxan-6-yl)vinyl]-1,3-diethylxanthine] | 23%

Same assay, conditions: Cheng-Prusoff's equation

Row | SMILES | Ki
3 | CCn1c(=O)c2[nH]c(/C=C/c3ccc4c(c3)OCCO4)nc2n(CC)c1=O [Compound 17, (E)-8-[2-(1,4-Benzodioxan-6-yl)vinyl]-1,3-diethylxanthine] | > 100000 nM

Test system: dd-strain male mice
Experiment: Acute toxicity test (minimum lethal dose, oral)
Format: in vivo
Conditions: oral administration, three mice per group, mortality seven days after administration
Description: Test compounds were orally administered to groups of dd-strain male mice weighing 20 ± 1 g, each group consisting of three mice. Seven days after the administration, minimum lethal dose (MLD) of each compound was determined by observing the mortality.

Row | SMILES | MLD
4 | CCn1c(=O)c2[nH]c(/C=C/c3ccc4c(c3)OCCO4)nc2n(CC)c1=O [Compound 17, (E)-8-[2-(1,4-Benzodioxan-6-yl)vinyl]-1,3-diethylxanthine] | > 100 mg/kg
5 | CCn1c(=O)c2c(nc(/C=C/c3cccc(Br)c3)n2C)n(CC)c1=O [Compound 92, (E)-8-(3-Bromostyryl)-1,3-diethyl-7-methylxanthine] | > 100 mg/kg
6 | CCn1c(=O)c2c(nc(/C=C/c3ccc(OC)c(F)c3)n2C)n(CC)c1=O [Compound 103, (E)-1,3-Diethyl-8-(3-fluoro-4-methoxystyryl)-7-methylxanthine] | > 100 mg/kg
7 | CCn1c(=O)c2c(nc(/C=C/c3cccc(F)c3C)n2C)n(CC)c1=O [Compound 109, (E)-1,3-Diethyl-8-(3-fluoro-2-methylstyryl)-7-methylxanthine] | > 100 mg/kg
8 | CCn1c(=O)c2c(nc(/C=C/c3ccc(O)c(O)c3)n2C)n(CC)c1=O [Compound 110, (E)-8-(3,4-Dihydroxystyryl)-1,3-diethyl-7-methylxanthine] | > 100 mg/kg
9 | CCn1c(=O)c2c(nc(/C=C/c3ccc(O)cc3)n2C)n(CC)c1=O [Compound 112, (E)-1,3-Diethyl-8-(4-hydroxystyryl)-7-methylxanthine] | > 100 mg/kg
10 | CCn1c(=O)c2c(nc(/C=C/c3ccc(OCc4ccccc4)cc3)n2C)n(CC)c1=O [Compound 113, (E)-8-(4-Benzyloxystyryl)-1,3-diethyl-7-methylxanthine] | > 100 mg/kg

Biological target: T2, A₂ receptor (Rattus norvegicus, UniProt P30543)
T2 construct: from tissue; host or cells: rat corpus striatum membrane preparation
Experiment: Adenosine A₂ receptor binding test (³H-NECA binding)
Conditions: ratio of Ki values A₁/A₂

T2 sequence (P30543 whole entry): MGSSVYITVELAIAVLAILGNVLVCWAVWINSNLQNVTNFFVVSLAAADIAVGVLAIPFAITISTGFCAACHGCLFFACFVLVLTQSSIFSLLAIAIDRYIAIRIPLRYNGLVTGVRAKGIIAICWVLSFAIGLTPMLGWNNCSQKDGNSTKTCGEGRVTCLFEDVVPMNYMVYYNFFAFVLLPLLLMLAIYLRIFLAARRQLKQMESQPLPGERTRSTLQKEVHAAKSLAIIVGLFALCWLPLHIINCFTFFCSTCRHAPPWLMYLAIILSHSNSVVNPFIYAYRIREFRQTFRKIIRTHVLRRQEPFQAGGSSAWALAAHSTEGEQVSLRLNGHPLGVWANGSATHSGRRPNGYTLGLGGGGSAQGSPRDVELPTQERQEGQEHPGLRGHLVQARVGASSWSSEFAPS

Row | SMILES | Ratio (A₁/A₂)
11 | CCn1c(=O)c2[nH]c(/C=C/c3ccc4c(c3)OCCO4)nc2n(CC)c1=O [Compound 17, (E)-8-[2-(1,4-Benzodioxan-6-yl)vinyl]-1,3-diethylxanthine] | > 16,000

Same assay, conditions: read-out: Inhibition (%) A₂ Receptor

Row | SMILES | inhibition at 0.1 µM | inhibition at 1 µM | inhibition at 10 µM | inhibition at 100 µM
12 | CCn1c(=O)c2[nH]c(/C=C/c3ccc4c(c3)OCCO4)nc2n(CC)c1=O [Compound 17, (E)-8-[2-(1,4-Benzodioxan-6-yl)vinyl]-1,3-diethylxanthine] | 70% | 69% | 80% | 80%

Same assay, conditions: ³H-NECA binding

Row | SMILES | Ki
13 | CCn1c(=O)c2[nH]c(/C=C/c3ccc4c(c3)OCCO4)nc2n(CC)c1=O [Compound 17, (E)-8-[2-(1,4-Benzodioxan-6-yl)vinyl]-1,3-diethylxanthine] | 6.3 nM

Biological target: T2, A₂ receptor
Experiment: Adenosine A₂ receptor binding test (³H-CGS 21680 binding)
Conditions: 10^-6M; [^3H]CGS 21680 was used, rat corpus striatum; read-out: A2 Receptor Inhibition (%)
Description: The similar procedure as in the above-described adenosine A₁ receptor binding test was repeated using rat corpus striatum to obtain the final precipitate of the tissue thereof. The precipitate was suspended in 50 mM Tris HCl buffer containing 10 mM magnesium chloride and 0.02 unit/mg tissue of adenosine deaminase (manufactured by Sigma Co.) to give a tissue concentration of 5 mg (wet weight)/ml.
The similar procedure as above was repeated to determine the radioactivity bound to the A₂ receptors using 50 µl of CGS 21680 labeled with tritium [³H-2-[p-(2-carboxyethyl)-phenethylamino]-5'-(N-ethylcarboxamide)adenosine: 40 Ci/mmol, manufactured by New England Nuclear Co. (J. Pharmacol. Exp. Ther., 251, 888 (1989)] (final concentration: 4.0 nM) in place of 50 µl of the mixture of N-ethylcarboxamidoadenosine labeled with tritium (³H-NECA: 26 Ci/mmol, manufactured by Amersham Co.) (final concentration: 3.8 nM) and cyclopentyladenosine (CPA, manufactured by Sigma Co.) (final concentration: 50 nM).
The inhibition rate of the test compound against the binding of A₂ receptors (³H-CGS 21680 binding) was calculated by the following equation: [formula] [Notes] • 1. "B" means the amount of radioactivity of ³H-CGS 21680 bound in the presence of a test compound at a concentration shown in Table 4. • 2. "T" means the amount of radioactivity of ³H-CGS 21680 bound in the absence of a test compound. • 3. "N" means the amount of radioactivity of ³H-CGS 21680 bound in the presence of 100 µM CPA.

Row | SMILES | inhibition at 1 µM
14 | CCn1c(=O)c2c(nc(/C=C/c3cccc(Br)c3)n2C)n(CC)c1=O [Compound 92, (E)-8-(3-Bromostyryl)-1,3-diethyl-7-methylxanthine] | 103%
15 | CCn1c(=O)c2c(nc(/C=C/c3ccc(OC)c(F)c3)n2C)n(CC)c1=O [Compound 103, (E)-1,3-Diethyl-8-(3-fluoro-4-methoxystyryl)-7-methylxanthine] | 102%
16 | CCn1c(=O)c2c(nc(/C=C/c3cccc(F)c3C)n2C)n(CC)c1=O [Compound 109, (E)-1,3-Diethyl-8-(3-fluoro-2-methylstyryl)-7-methylxanthine] | 96%
17 | CCn1c(=O)c2c(nc(/C=C/c3ccc(O)c(O)c3)n2C)n(CC)c1=O [Compound 110, (E)-8-(3,4-Dihydroxystyryl)-1,3-diethyl-7-methylxanthine] | 96%
18 | CCn1c(=O)c2c(nc(/C=C/c3ccc(O)cc3)n2C)n(CC)c1=O [Compound 112, (E)-1,3-Diethyl-8-(4-hydroxystyryl)-7-methylxanthine] | 95%
19 | CCn1c(=O)c2c(nc(/C=C/c3ccc(OCc4ccccc4)cc3)n2C)n(CC)c1=O [Compound 113, (E)-8-(4-Benzyloxystyryl)-1,3-diethyl-7-methylxanthine] | 68%

Same assay, conditions: 10^-7M; [^3H]CGS 21680 was used, rat corpus striatum; read-out: A2 Receptor Inhibition (%)

Row | SMILES | inhibition at 0.1 µM
20 | CCn1c(=O)c2c(nc(/C=C/c3cccc(Br)c3)n2C)n(CC)c1=O [Compound 92, (E)-8-(3-Bromostyryl)-1,3-diethyl-7-methylxanthine] | 93%
21 | CCn1c(=O)c2c(nc(/C=C/c3ccc(OC)c(F)c3)n2C)n(CC)c1=O [Compound 103, (E)-1,3-Diethyl-8-(3-fluoro-4-methoxystyryl)-7-methylxanthine] | 75%
22 | CCn1c(=O)c2c(nc(/C=C/c3cccc(F)c3C)n2C)n(CC)c1=O [Compound 109, (E)-1,3-Diethyl-8-(3-fluoro-2-methylstyryl)-7-methylxanthine] | 97%
23 | CCn1c(=O)c2c(nc(/C=C/c3ccc(O)c(O)c3)n2C)n(CC)c1=O [Compound 110, (E)-8-(3,4-Dihydroxystyryl)-1,3-diethyl-7-methylxanthine] | 61%
24 | CCn1c(=O)c2c(nc(/C=C/c3ccc(O)cc3)n2C)n(CC)c1=O [Compound 112, (E)-1,3-Diethyl-8-(4-hydroxystyryl)-7-methylxanthine] | 79%
25 | CCn1c(=O)c2c(nc(/C=C/c3ccc(OCc4ccccc4)cc3)n2C)n(CC)c1=O [Compound 113, (E)-8-(4-Benzyloxystyryl)-1,3-diethyl-7-methylxanthine] | 34%

Test system: Haloperidol-Induced Catalepsy
Experiment: Effect on haloperidol-induced catalepsy
Format: in vivo, mice
Conditions: of five mice, catalepsy score not more than 4 points; 10 mg/kg orally
Method in brief: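 Mice got haloperidol 1.0 mg/kg i.p. in 0.3% CMC, then test compounds orally 1 hr later in 0.3% CMC or Tween 80/water. Catalepsy was scored on a 4.5 cm-high bar 1 hr after dosing; remission meant score ≤4 points. ED₅₀ came from Probit analysis.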

Row | SMILES | Number of the Animals Showing Remission
26 | CCn1c(=O)c2c(nc(/C=C/c3cccc(Br)c3)n2C)n(CC)c1=O [Compound 92, (E)-8-(3-Bromostyryl)-1,3-diethyl-7-methylxanthine] | 4
27 | CCn1c(=O)c2c(nc(/C=C/c3ccc(OC)c(F)c3)n2C)n(CC)c1=O [Compound 103, (E)-1,3-Diethyl-8-(3-fluoro-4-methoxystyryl)-7-methylxanthine] | 3
28 | CCn1c(=O)c2c(nc(/C=C/c3cccc(F)c3C)n2C)n(CC)c1=O [Compound 109, (E)-1,3-Diethyl-8-(3-fluoro-2-methylstyryl)-7-methylxanthine] | 5
29 | CCn1c(=O)c2c(nc(/C=C/c3ccc(O)c(O)c3)n2C)n(CC)c1=O [Compound 110, (E)-8-(3,4-Dihydroxystyryl)-1,3-diethyl-7-methylxanthine] | 3
30 | CCn1c(=O)c2c(nc(/C=C/c3ccc(O)cc3)n2C)n(CC)c1=O [Compound 112, (E)-1,3-Diethyl-8-(4-hydroxystyryl)-7-methylxanthine] | 5
31 | CCn1c(=O)c2c(nc(/C=C/c3ccc(OCc4ccccc4)cc3)n2C)n(CC)c1=O [Compound 113, (E)-8-(4-Benzyloxystyryl)-1,3-diethyl-7-methylxanthine] | 3

Same assay, conditions: rate of decrease in total score based on control group; 10 mg/kg orally

Row | SMILES | Remission Rate (%)
32 | CCn1c(=O)c2c(nc(/C=C/c3cccc(Br)c3)n2C)n(CC)c1=O [Compound 92, (E)-8-(3-Bromostyryl)-1,3-diethyl-7-methylxanthine] | 52%
33 | CCn1c(=O)c2c(nc(/C=C/c3ccc(OC)c(F)c3)n2C)n(CC)c1=O [Compound 103, (E)-1,3-Diethyl-8-(3-fluoro-4-methoxystyryl)-7-methylxanthine] | 36%
34 | CCn1c(=O)c2c(nc(/C=C/c3cccc(F)c3C)n2C)n(CC)c1=O [Compound 109, (E)-1,3-Diethyl-8-(3-fluoro-2-methylstyryl)-7-methylxanthine] | 84%
35 | CCn1c(=O)c2c(nc(/C=C/c3ccc(O)c(O)c3)n2C)n(CC)c1=O [Compound 110, (E)-8-(3,4-Dihydroxystyryl)-1,3-diethyl-7-methylxanthine] | 20%
36 | CCn1c(=O)c2c(nc(/C=C/c3ccc(O)cc3)n2C)n(CC)c1=O [Compound 112, (E)-1,3-Diethyl-8-(4-hydroxystyryl)-7-methylxanthine] | 84%
37 | CCn1c(=O)c2c(nc(/C=C/c3ccc(OCc4ccccc4)cc3)n2C)n(CC)c1=O [Compound 113, (E)-8-(4-Benzyloxystyryl)-1,3-diethyl-7-methylxanthine] | 24%

Same assay, conditions: total catalepsy score of five mice (25 points at the full); 10 mg/kg orally, haloperidol 1.0 mg/kg i.p.

Row | SMILES | Total Score
38 | CCn1c(=O)c2c(nc(/C=C/c3cccc(Br)c3)n2C)n(CC)c1=O [Compound 92, (E)-8-(3-Bromostyryl)-1,3-diethyl-7-methylxanthine] | 12
39 | CCn1c(=O)c2c(nc(/C=C/c3ccc(OC)c(F)c3)n2C)n(CC)c1=O [Compound 103, (E)-1,3-Diethyl-8-(3-fluoro-4-methoxystyryl)-7-methylxanthine] | 16
40 | CCn1c(=O)c2c(nc(/C=C/c3cccc(F)c3C)n2C)n(CC)c1=O [Compound 109, (E)-1,3-Diethyl-8-(3-fluoro-2-methylstyryl)-7-methylxanthine] | 4
41 | CCn1c(=O)c2c(nc(/C=C/c3ccc(O)c(O)c3)n2C)n(CC)c1=O [Compound 110, (E)-8-(3,4-Dihydroxystyryl)-1,3-diethyl-7-methylxanthine] | 20
42 | CCn1c(=O)c2c(nc(/C=C/c3ccc(O)cc3)n2C)n(CC)c1=O [Compound 112, (E)-1,3-Diethyl-8-(4-hydroxystyryl)-7-methylxanthine] | 4
43 | CCn1c(=O)c2c(nc(/C=C/c3ccc(OCc4ccccc4)cc3)n2C)n(CC)c1=O [Compound 113, (E)-8-(4-Benzyloxystyryl)-1,3-diethyl-7-methylxanthine] | 19
